ChEMBL document CHEMBL1201862, “PubChem BioAssay data set” (2004)
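Five compound concentrations were applied to cells in 96-well plates for 48 hours; endpoints were derived by simple linear interpolation of the resulting dose-response curve. GI50 marks 50% less growth.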 Active and inactive are the calls of the source. Cut-off read from the data, not from the text of the source: active = GI50 up to about 1.1 µM and inactive = higher.

Key:
Experiment in all cases: NCI-60 cell line screen, 48 h
IGROV-1 = test system: IGROV-1
LOX IMVI = test system: LOX IMVI
Malme-3M = test system: Malme-3M
K562 = test system: K562
HCT-116 = test system: HCT-116
A498 = test system: A498
DU-145 = test system: DU-145
BT-549 = test system: BT-549
RPMI-8226 = test system: RPMI-8226
NCI-H23 = test system: NCI-H23
MOLT-4 = test system: MOLT-4
OVCAR-8 = test system: OVCAR-8
HCT-15 = test system: HCT-15
NCI-H522 = test system: NCI-H522
SF-268 = test system: SF-268
NCI-H226 = test system: NCI-H226
NCI-H460 = test system: NCI-H460
SK-MEL-5 = test system: SK-MEL-5
OVCAR-4 = test system: OVCAR-4
SK-OV-3 = test system: SK-OV-3

Row | Structure (SMILES) | GI50 (IGROV-1) | GI50 (LOX IMVI) | GI50 (Malme-3M) | GI50 (K562) | GI50 (HCT-116) | GI50 (A498) | GI50 (DU-145) | GI50 (BT-549) | GI50 (RPMI-8226) | GI50 (NCI-H23) | GI50 (MOLT-4) | GI50 (OVCAR-8) | GI50 (HCT-15) | GI50 (NCI-H522) | GI50 (SF-268) | GI50 (NCI-H226) | GI50 (NCI-H460) | GI50 (SK-MEL-5) | GI50 (OVCAR-4) | GI50 (SK-OV-3)
1 | CS(=O)(=O)N1CC(CI)c2ccc(O)cc21 (stereo not drawn) | 3.98 µM (inactive) | 3.21 µM (inactive) | 1.93 µM (inactive) | 2.66 µM (inactive) | 2.98 µM (inactive) | 2.77 µM (inactive) | 3.05 µM (inactive) | 3.68 µM (inactive) | 1.61 µM (inactive) | 1.32 µM (inactive) | 0.809 µM (active) | 2.89 µM (inactive) | 3.13 µM | 1.15 µM (inactive) | 1.32 µM (inactive) | 3.5 µM (inactive) | 2.35 µM (inactive) | 1.43 µM (inactive) | 1.96 µM (inactive) | –
2 | Cc1csc2nc(-c3cc([N+](=O)[O-])c(Cl)cc3Cl)c(/C=N/N=C(N)N)n12 | 16.4 µM (inactive) | 16.7 µM (inactive) | 17.8 µM (inactive) | 6.53 µM (inactive) | 16.7 µM (inactive) | 19.6 µM (inactive) | 16.7 µM (inactive) | 14.6 µM (inactive) | 16.7 µM (inactive) | 16.4 µM (inactive) | 0.0986 µM (active) | 19.2 µM (inactive) | 21.2 µM | 15.9 µM (inactive) | 16.5 µM (inactive) | 18.5 µM (inactive) | 20.2 µM (inactive) | 16.1 µM (inactive) | 16 µM (inactive) | –
3 | O=C(CCNC12CC3CC(CC(C3)C1)C2)c1ccccc1 | 21.6 µM (inactive) | – | 18.2 µM (inactive) | 14.3 µM (inactive) | 15.2 µM (inactive) | 17.4 µM (inactive) | 24.8 µM (inactive) | 28.7 µM (inactive) | 8.13 µM (inactive) | 20.1 µM (inactive) | 13.1 µM (inactive) | 21.6 µM (inactive) | 16.5 µM | 17.3 µM (inactive) | 24.6 µM (inactive) | 33.1 µM (inactive) | 19.6 µM (inactive) | 17.9 µM (inactive) | 36.8 µM (inactive) | –
4 | CCOC(=O)CCC(NC(=O)c1ccc(NCc2ccc3nc(-c4ccccc4)c(Cl)nc3c2)c2ccccc12)C(=O)OCC (stereo not drawn) | – | > 100 µM (inactive) | > 100 µM (inactive) | 6.46 µM (inactive) | > 100 µM (inactive) | > 100 µM (inactive) | > 100 µM (inactive) | > 100 µM (inactive) | – | 58.1 µM (inactive) | 0.977 µM (active) | > 100 µM (inactive) | > 100 µM | 50.9 µM (inactive) | > 100 µM (inactive) | > 100 µM (inactive) | > 100 µM (inactive) | 9.14 µM (inactive) | > 100 µM (inactive) | > 100 µM (inactive)
5 | O=C1C(O)=C(CC=C(Cl)Cl)C(=O)c2ccccc21 | 6.5 µM (inactive) | 2.23 µM (inactive) | 10.8 µM (inactive) | 1.82 µM (inactive) | 1.36 µM (inactive) | 30 µM (inactive) | 23.8 µM (inactive) | 18.3 µM (inactive) | 2.28 µM (inactive) | 27.9 µM (inactive) | 1.46 µM (inactive) | 5.48 µM (inactive) | 0.757 µM | 14 µM (inactive) | 11.7 µM (inactive) | – | 1.45 µM (inactive) | 8 µM (inactive) | 21.7 µM (inactive) | 41.6 µM (inactive)
6 | CC(C)(C)c1ccc(-c2nc3ccc([N+](=O)[O-])cc3c(=O)o2)cc1 | 44.2 µM (inactive) | 15.3 µM (inactive) | 28.9 µM (inactive) | 19.1 µM (inactive) | 23.4 µM (inactive) | 29.9 µM (inactive) | 32.7 µM (inactive) | 24.1 µM (inactive) | 30.9 µM (inactive) | 28.7 µM (inactive) | 18.7 µM (inactive) | 20.9 µM (inactive) | 22.6 µM | 20.1 µM (inactive) | 35.7 µM (inactive) | – | 36.4 µM (inactive) | 27.2 µM (inactive) | 17.6 µM (inactive) | 31.5 µM (inactive)
7 | CCOC(=O)C1=CNC(C(=O)OCC)C1c1cccn1-c1ccc(Cl)cc1[N+](=O)[O-] (stereo not drawn) | 9.4 µM (inactive) | 15.9 µM (inactive) | – | 23.8 µM (inactive) | 17.1 µM (inactive) | 50.7 µM (inactive) | 29.5 µM (inactive) | 22.8 µM (inactive) | – | 36.6 µM (inactive) | 22.1 µM (inactive) | 25.8 µM (inactive) | 21.5 µM | 16 µM (inactive) | 18.2 µM (inactive) | 20.1 µM (inactive) | 15.4 µM (inactive) | 16.6 µM (inactive) | 31.3 µM (inactive) | 32.7 µM (inactive)
8 | Cc1cc(C)nc(NS(=O)(=O)c2ccc(Nc3c4ccccc4nc4c(C(=O)NCCCN(CCO)CCO)cccc34)cc2)n1 | 15.5 µM (inactive) | 10.3 µM (inactive) | 15.4 µM (inactive) | 10.6 µM (inactive) | – | 54.3 µM (inactive) | 41.6 µM (inactive) | 11.6 µM (inactive) | 9.38 µM (inactive) | 29.4 µM (inactive) | 3.33 µM (inactive) | 17.3 µM (inactive) | 49.2 µM | 10.9 µM (inactive) | 16.9 µM (inactive) | – | 7.48 µM (inactive) | 14.8 µM (inactive) | 16.9 µM (inactive) | 50.1 µM (inactive)
9 | ClC(Cl)(Cl)C1CCOC1n1nc2ccccc2n1 (stereo not drawn) | > 100 µM (inactive) | – | > 100 µM (inactive) | > 100 µM (inactive) | > 100 µM (inactive) | > 100 µM (inactive) | > 100 µM (inactive) | > 100 µM (inactive) | – | > 100 µM (inactive) | > 100 µM (inactive) | > 100 µM (inactive) | > 100 µM | > 100 µM (inactive) | > 100 µM (inactive) | > 100 µM (inactive) | > 100 µM (inactive) | > 100 µM (inactive) | > 100 µM (inactive) | > 100 µM (inactive)
10 | Cc1ccc(Nc2nnc3n2S(=O)(=O)c2cc(C)c(Cl)cc2S3)cc1 | 4.4 µM (inactive) | 6.14 µM (inactive) | – | 3.4 µM (inactive) | 6.37 µM (inactive) | 15.4 µM (inactive) | 8.09 µM (inactive) | 5.28 µM (inactive) | 18.4 µM (inactive) | 8.95 µM (inactive) | 4.25 µM (inactive) | 12.6 µM (inactive) | 5.05 µM | 2.18 µM (inactive) | 4.25 µM (inactive) | 10.7 µM (inactive) | 7.23 µM (inactive) | 3.6 µM (inactive) | 22.8 µM (inactive) | –
11 | NCC(Cc1ccccc1)P(=O)(O)O (stereo not drawn) | > 100 µM (inactive) | > 100 µM (inactive) | > 100 µM (inactive) | > 100 µM (inactive) | > 100 µM (inactive) | > 100 µM (inactive) | > 100 µM (inactive) | > 100 µM (inactive) | – | > 100 µM (inactive) | > 100 µM (inactive) | > 100 µM (inactive) | > 100 µM | > 100 µM (inactive) | > 100 µM (inactive) | > 100 µM (inactive) | > 100 µM (inactive) | > 100 µM (inactive) | > 100 µM (inactive) | > 100 µM (inactive)
